Patent US11572344B2, “Cyanoaryl-aniline compounds for treatment of dermal disorders” (NFlection Therapeutics, Inc., priority 2018, dated 2023)

Legend:
[1] = test system: pERK in human cutaneous neurofibroma explants; test: Human cutaneous neurofibroma explant pERK suppression (Western blot); format: cell-based
Protocol: Explant Protocol: Human cutaneous neurofibroma explant samples were collected in DMEM/F-12 (Thermo Fisher, Cat #11320033) supplemented with 1×B27 supplement (Thermo Fisher, Cat #17504044), 2.5 μg/ml of Amphotericin B (Thermo Fisher, Cat #15290018), and 50 units/ml of Penicillin-50 μg/ml of Streptomycin (Thermo Fisher, Cat #15070063) and incubated in the same medium for subsequent treatment. The specimen was cut into small cubes containing both the epidermis and dermis. The tissues were partially submerged in the medium in 384-well plate with the epidermis exposed to the air.
The tissues were fully submerged in the medium in 48-well plate and 5 μl of compounds dissolved in DMSO were added to 200 μl of the medium in each well. After 4 h incubation at 37° C. and 5% CO2, the tissues were harvested and half of the specimen was flash frozen in liquid nitrogen for Western Blot analysis. The other half of the specimen was fixed for 24 hours in 10% formalin and then transferred to 70% ethanol for […].
Skin samples were thawed on ice and weighed. 10 volume (10 μl for each mg of tissue) of lysis buffer (RIPA buffer+0.5 mM EDTA+1×Halt protease and phosphatase inhibitor cocktail) was then added to each sample. […]
Western Blot analysis: The lysate was thawed on ice and protein concentration was determined by the BCA protein assay kit using bovine serum albumin (BSA) as standards. […]

MEK1 = MEK1 (Homo sapiens (Human), UniProt Q02750); test: MEK Inhibition Assay-1 (33P-ATP, P81 filter-binding); conditions: assay of Example 38; read-out: Assay 1: biochemical MEK IC50
Protocol: The following procedure can be used to measure biochemical activity. MEK1 inhibitory activity of compounds were tested using the following procedure. […] Nat Biotechnol. 2011, 29(11), 1039-45.
• Reaction buffer: 20 mM Hepes (pH 7.5), 10 mM MgCl2, 1 mM EGTA, 0.02% Brij35, 0.02 mg/mL BSA, 0.1 mM Na3VO4, 2 mM DTT, 1% DMSO • Enzyme: MEK1, Invitrogen cat #PV3303 • N-terminal His-tagged recombinant human full length protein, expressed in insect cells. Activated in vitro by RAF1. MW=49.2 kDa, GenBank Accession No. NP_002746. • Substrate: 5 μM ERK2 (K52R), • Kinase-dead mutant, (GenBank Accession No. NM_0011949), aa2-358 with N-terminal His6 tag, MW=43.63 kDa, expressed in E. coli.
The substrate was prepared in freshly prepared Reaction Buffer. The kinase was delivered into the substrate solution and gently mixed. Test compounds were delivered in 100% DMSO into the kinase reaction mixture by Acoustic technology (Echo550; nanolitter range), and incubated for 20 min at room temperature. ^33P-ATP was delivered into the reaction mixture to initiate the reaction. The reaction mixture was incubated for 2 hours at room temperature. Kinase activity was detected by P81 filter-binding method.
Assay 1 is the biochemical MEK IC50 (nM) assay as described in Example 38.

Chain of MEK1 (Q02750 whole entry): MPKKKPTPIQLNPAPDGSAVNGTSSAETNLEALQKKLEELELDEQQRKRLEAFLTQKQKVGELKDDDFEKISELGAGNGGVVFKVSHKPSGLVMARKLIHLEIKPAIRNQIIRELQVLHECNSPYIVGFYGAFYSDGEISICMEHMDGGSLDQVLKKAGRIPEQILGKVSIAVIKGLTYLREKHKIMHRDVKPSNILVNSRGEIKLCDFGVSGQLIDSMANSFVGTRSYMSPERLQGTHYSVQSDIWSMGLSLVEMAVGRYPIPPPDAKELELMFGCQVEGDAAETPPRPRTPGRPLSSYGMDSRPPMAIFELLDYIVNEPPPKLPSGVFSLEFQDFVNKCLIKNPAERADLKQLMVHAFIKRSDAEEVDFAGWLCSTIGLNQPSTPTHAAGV

Row | IC50 (MEK1) | SMILES | suppression of pERK in human cutaneous neurofibroma (cNF) explants ([1]; concentration of 500 nM (FIG. 5)) | suppression of pERK in human cutaneous neurofibroma (cNF) explants ([1]; treatment for 4 hours at 5 nM, 50 nM, and 500 nM (FIG. 4))
1 | ≤ 150 nM | N#Cc1ccc(C(=O)NOCCO)c(Nc2ccc(I)cc2F)c1F [Compound 1.030, 4-cyano-3-fluoro-2-((2-fluoro-4-iodophenyl)amino)-N-(2-hydroxyethoxy) benzamide] | suppression of pERK | suppression of pERK
2 | ≤ 150 nM | N#Cc1ccc(C(=O)NOCCO)c(Nc2ccc(I)cc2F)c1 [Compound 1.010] | – | –
3 | ≤ 150 nM | N#Cc1ccc(C(=O)NOCC2CC2)c(Nc2ccc(I)cc2F)c1F [Compound 1.031] | – | –
